Data as given in patent US9290529B2, “Carbonic anhydrase inhibitors and method of their production” (USTAV ORGANICKE CHEMIE A BIOCHEMIE AKADEMIE VED CESKE …, priority 2011, dated 2016).

What was measured:
[1] = biological target: T1, human carbonic anhydrase IX (hCA IX) (Homo sapiens, UniProt Q16790); test: Colorimetric carbonic anhydrase inhibition assay (CO2 hydration, phenol red), hCA IX; format: biochemical; settings: for IC50: 0° C., HEPES pH 7.0, recombinant extracellular CA domain, read-out: IC50 (hCA IX); for Selectivity to hCA IX IC50 (hCA II)/IC50 (hCA IX): ratio of IC50 values
T1 construct: Construct contained the extracellular CA domain (amino acid residues 139-390) cloned into the pMT/BiP/V5-His vector; His tag (from vector pMT/BiP/V5-His) (C); BiP secretion signal (from vector pMT/BiP/V5-His) (N); made in house; host or cells: Drosophila expression system (Invitrogen), insect cells, secreted into SF 900 II medium
Description: (§1) The compounds were assayed for inhibition activity of two isoforms of human carbonic anhydrase: hCA II and hCA IX. The human carbonic anhydrase II (HCA II) was purchased from Sigma Aldrich (Cat. No. C6165) in the form of lyophilized protein, which was dissolved before use in 10 mmol·l^−1 HEPES pH 7.0 to a concentration of 300 μmol·l^−1 and further diluted as required. Human carbonic anhydrase IX (HCA IX) was prepared by recombinant expression system in insect (Drosophila expression system, Invitrogen). […] This protein was further purified from media by chelating chromatography carrier His-Select Nickel Affinity Gel (Sigma, Cat No. P6611) and gel chromatography (Superdex 200 GL 30/300, GE Healthcare) according to the manufacturer's recommendations.
(§2) The principle of the method is based on measuring the rate of acidification of the solution that is observed as the color-shift of the acid-base-indicator (fenol red). The reaction was conducted in a glass tube placed in an ice bath (0° C., all stock solutions and enzymes were kept at the same temperature). […] This was followed by a CO2 saturation (stream flow 50 ml/min.) using a needle (18 G) up to color transition of fenol-red from red to yellow (typically 60 seconds by default). […] End point of reaction was determined by visual comparison with reference tube containing acid-base indicator (0.01% (wt./vol.) Fenol-red) and the pH adjusted to 7.0. […] Molar activity was calculated according to the formula:
(§3) [formula] where tB is the time of negative control without enzyme and tS is the time measured with an enzyme sample (and inhibitor), nprot is the number of moles of protein present in the sample. The value of IC50 for the inhibitor concentration corresponds inhibitor contraction required to decrease the specific activity to half of the value of non-inhibited enzyme. Selectivity towards CA IX inhibitor was calculated as the ratio of IC50 values for inhibition of HCA II against the value of IC50 for inhibition CA IX enzyme.

[2] = biological target: T2, human carbonic anhydrase II (hCA II) (Homo sapiens, UniProt P00918); test: Colorimetric carbonic anhydrase inhibition assay (CO2 hydration, phenol red), hCA II; format: biochemical; settings: 0° C., HEPES pH 7.0
T2 construct: purchased Sigma Aldrich C6165
Description: as §1, §2, §3

[3] = test system: CCRF-CEM cells; test: Flow cytometric measurement of intracellular pH (pHi), CA IX negative CCRF-CEM; format: cell-based, human; settings: 50 μM acetazolamide, 24 hour incubation, control 7.362
Description: (§4) The effect of carborane CAIX (carbonic anhydrase IX) inhibitors was evaluated on colorectal cancer cell line HCT116 expressing CAIX enzyme versus CA IX negative cell line of T-lymphoblastic leukemia CCRF-CEM. Acetazolamide, a known inhibitor of CAIX, was used as a standard. HCT116/CCRF-CEM cells were cultivated in McCoy/RPMI Media supplemented with 10% FCS and antibiotics and seeded at high density ([…] per 3.5 cm dish) to induce pericellular hypoxia and thus stimulate CA IX expression. Measurement of pHi was assessed as described in Cianchi et al. [Cianchi F., et al. Selective inhibition of carbonic anhydrase IX decreases cell proliferation and induces […] apoptosis in human cancer cells. The Journal of Pharmacology and Experimental Therapeutics, 2010, Vol. 334, No. 3, 710-719].
(§5) […] The pHi was measured by flow cytometry in cell cultures pretreated with 10 μM of pH sensitive probe carboxyseminaphtorhoda-fluor-1-acetoxymethyl ester (SNARF, Invitrogen, CA) for 15 min at 37° C. After incubation, the cells were washed twice with PBS. Because the addition of bicarbonate can affect pHi, all incubation and cell washes were performed in bicarbonate-free buffer. SNARF was excited at 488 nm and emitted at 580 and 640 nm. The ratio of the emission wavelengths at 640/580 nm was then used to estimate the pHi from a calibration curve. The calibration curve was prepared by nigericin clamp technique. In this method, after the SNARF labeling of untreated cells, aliquots of cell suspensions were re-suspended in a high potassium containing buffer at specific pH (usually 6.8, 7.0, 7.2, 7.4, 7.6 and 7.8). The cell suspensions were then clamped at a specific pH value by the addition of 0.03 μM nigericin (Sigma-Aldrich). Nigericin is a ionophore that allows the exchange of H for K ions, thus abolishing the pH gradient across the cell membrane. When the internal and external K concentrations are approximately equal, the pH rapidly equilibrates to the pH of the bathing solution. A total of 20,000 events were acquired on a FACS ARIA II flow cytometer (Becton. Dickinson) for further analysis.
(§6) The fluorescent ratio values (640/580 nm) calculated for each pH point were further used to construct calibration curve in Prism software (GraphPad Software, Inc., San Diego, Calif.), from which the pHi values in treated cells were determined (Table 3).

[4] = test system: HCT116 cells; test: Flow cytometric measurement of intracellular pH (pHi), HCT116 expressing CAIX; format: cell-based, human
Description: as §4, §5, §6

Row | IC50 [1] | Selectivity to hCA IX IC50 (hCA II)/IC50 (hCA IX) [1] | IC50 [2] | Compound | pHi [3] | pHi ([4]; HCT116, 50 μM acetazolamide, 24 hour incubation, control 7.516) | intracellular acidification in HCT116 cells ([4]; carboranes 1 μM versus acetazolamide 50 μM)
1 | 4 nM | 10 | 40 nM | 1,1′-bis(3-sulfamoylpropyl)-3,3′-commo-bis(1,2-dicarba-3-cobalta(III)-closo-dodecabor)ate (1-) [CB-25] |  |  | 
2 | 380 nM | 1.05 | 400 nM | 1-(2-sulfonamidethyl)-1,2-dicarba-closo-dodecaborane [CB-23] |  |  | 
3 | 14 nM | 7.9 | 110 nM | 1-(3-sulfamoyl-propyl)-3,3′-commo-(decahydro-1,2-dicarba-3-cobalta(III)-undecahydro-1′,2″-dicarba-closo-dodecabor)ate (1-), sodium salt dihydrate [CB-26] |  |  | 
4 | 0.7 nM | 814 | 570 nM | 1-ethylenenesulfamide-3,3′-commo-bis(1,2-dicarba-3-cobalta(III)-closo-dodecabor)ate (1-) [CB-30] |  |  | 
5 | 22 nM | 177 | 3900 nM | 1-propylenesulfamide-3,3′-commo-bis(1,2-dicarba-3-cobalta(III)-closo-dodecabor)ate (1-) [CB-29] |  |  | 
6 | 1500 nM | 55.9 | 83900 nM | 9-sulfamide-10′-amine-2,2′-commo-(1,7,9-tricarba-1′,7′, 10′-tricarba-2-ferra(H)-closo-dodekabor)ane [CB-11] |  |  | 
7 |  |  |  | CC(=O)Nc1nnc(S(N)(=O)=O)s1 [acetazolamide, reference compound] | 7.34 | 7.47 | mild intracellular acidification
